From publication PMC12419922, “Myristoylated Cathelicidin-DM Fused With ANG1-7: A Novel Self-Assembling Antimicrobial Peptide for the Treatment and Mechanism of Diabetic Infected Wounds” (Journal of Diabetes Research, 2025)
Read-outs that look alike come from different tables or passages of the source. Where no end group is shown, it is not given here. The star is where a group is joined. Myristoyl = CCCCCCCCCCCCCC(=O)*

Columns and labels:
[1] = test system: PI3K/AKT/eNOS signaling pathway, MasR in HUVECs; assay: Western blot of PI3K/AKT/eNOS signaling pathway and MasR; format: cell-based, human
Description: After the specified treatments, HUVECs were harvested using a cell scraper and lysed in cell lysis buffer (Wuhan Boster Biological Engineering Co., Ltd.) for 30 min at 4°C. Total protein was quantified using a BCA protein assay kit. Lysate (20 μg) from each sample was separated by 10% sodium dodecyl sulfate–polyacrylamide gel electrophoresis (SDS-PAGE) and then transferred to a polyvinylidene fluoride (PVDF) membrane. The membrane was blocked with a fresh blocking buffer containing 5% skim milk in Tris-buffered saline with 0.1% Tween 20 (TBS-T) for 2 h at room temperature and then incubated with primary antibodies against AKT (1:1000 dilution, #4691, Cell Signaling Technology), p-AKT (1:2000 dilution, #4060, Cell Signaling Technology), PI3K (1:1000 dilution, ab191606, Abcam), p-PI3K (1:1000 dilution, ab278545, Abcam), eNOS (1:1000 dilution, #32027, Cell Signaling Technology), p-eNOS (1:1000 dilution, ab215717, Abcam), and Mas (1:1000 dilution, #85003-1-RR, Proteintech) overnight at 4°C with shaking. The membrane was washed with TBS-T for 15 min and then incubated with horseradish peroxidase (HRP)–conjugated goat anti-rabbit secondary antibody (Wuhan Sanying Biotechnology Co., Ltd.) at a 1:2000 dilution in TBS-T and 3% skim milk for 90 min at room temperature. The membrane was washed three times with TBS-T, each for 15 min, and the immune reaction signals were detected using an ECL detection method. Protein bands were detected using a chemiluminescent gel imaging system (Bio-Rad Lab, China). Protein expression was quantitatively analyzed using ImageJ software (National Institutes of Health, Bethesda, MD, United States), and the experiment was repeated three times.

[2] = test system: mouse red blood cell suspension; details: 37°C, 60 min, OD 590 nm, 0.1% Triton X-100 positive control
Description: In order to evaluate the hemolytic activity of self-assembled peptides on normal mammalian cells, fresh blood of normal mice was collected, and heparin sodium was anticoagulated and stored. After centrifugation at 4°C and 3000 rpm for 10 min, the precipitate was collected, washed, and centrifuged with normal saline for three times and then resuspended at 10% (v/v). We mix 100 μL of different concentrations of drugs with 100 μL of mouse red blood cell suspension, incubate in a constant temperature oscillation incubator at 37°C for 60 min, then take out and centrifuge according to the above setting, absorb 100 μL of supernatant, put it in a 96-well cell culture plate, and measure the OD value at 590 nm by M200 full-band enzyme-labeled instrument (Infinite M200 Pro, Switzerland). Then, 100 μL of 0.1% Triton X-100 solution was used as a positive control and PBS as a negative control. According to the formula, hemolysis (%) = (experimental group OD value − negative control OD value)/(positive control OD value − negative control OD value) × 100%.

S. aureus biofilms = assay: Antibiofilm activity, crystal violet staining and colony counting; format: cell-based, Staphylococcus aureus; details: different concentrations, 37°C, 24 h, crystal violet OD 595 nm and viable count
Description: E. coli (ATCC 25922) and S. aureus (ATCC 25923) were cultured overnight in MHB medium at 37°C. The bacterial suspension was diluted to 100 times and added to a 12-well plate (500 μL/well). Each peptide with a different concentration was added to the corresponding well plate and incubated at 37°C for 24 h. After incubation, 100 μL of culture supernatant was discarded. The biofilm was fixed with 100 μL of 100% methanol for 15 min, then air-dried, then dyed with 0.1% crystal violet (CV) for 30 mins, and washed with distilled water three times. After adding 200 μL of 95% ethanol, the inhibition rate of the biofilm was calculated by measuring the OD value at 595 nm with Infinite M200 PRO, Switzerland. After ultrasonic treatment, the biofilm was fully dispersed into single cells, and the cell suspension was diluted to a suitable concentration for colony counting. All experiments were repeated three times.
The formation of bacterial biofilms in the wounds of DFU patients is the main cause of bacterial resistance. By measuring the antibiofilm ability, the inhibitory and clearing effects of drugs on biofilms can be assessed. In the case of preventing biofilm formation, E. coli and S. aureus were cultured in LB nutrient medium with different concentrations of the novel AMP MYR-DM-ANG1-7 in 24-well plates at 37°C and incubate for 24 h. […]

HUVECs = assay: Scratch wound healing assay; format: cell-based, human; details: HG + LPS, 20 μg/mL, n = 3
Description: In a 6-well plate, HUVECs (2 × 10^5 cells/well) were seeded. The cells were starved in serum-free medium for 12 h, and then, a scratch was made vertically using a 200-μL pipette tip. […]

Substance: Myristoyl-SSRRKPCKGWLCKLKLRGGYTLIGSATNLNRPTYVRAGGGDRVYIHP (cysteines drawn unpaired) [MYR-DM-ANG1-7]
- expression of membrane receptor MasR ([1]; after HG treatment and drug treatment): significantly increased
- phosphorylation level of eNOS ([1]; pretreatment then HG + LPS): increased
- phosphorylation level of AKT (p-AKT/total AKT) ([1]; pretreatment then HG + LPS (HG + LPS 0.4-fold), n = 3): 0.94 fold
- phosphorylation level of PI3K (p-PI3K/total PI3K) ([1]; pretreatment then HG + LPS (HG + LPS 0.8-fold), n = 3): 1.28 fold
- hemolysis rate of red blood cells ([2]; 128 μg/mL): 6.01%
- hemolysis rate of red blood cells ([2]; 8-64 μg/mL): less than 5%
- formation of S. aureus biofilms (S. aureus biofilms): effectively inhibit
- wound healing rate (scratch assay) (HUVECs; after 12 h): 61.6%
- healing area (scratch assay) (HUVECs; at 48 h): 100%
